Structures are written as SMILES.

This note sets out measurements from patent US12465626B2, “Traditional Chinese medicine composition with improving cognition effect, preparation method thereof and traditional Chinese medicine preparation” (Chenland Nutritionals, Inc., priority 2019, dated 2025).

Common to all, as to assay type: in vivo
The test system of assay [1] is mice. The assay is described as follows: Novel object recognition test of mice. As to the method: Adaptation period: on the first day, the mice were placed in the test room for 1 hour of environmental adaptation and familiarity, and then placed in the open field box for 20 minutes (there was no object in the box), so as to eliminate the impact of the open field box on the tested mice. After the experiment of each mouse, the open field box was cleaned with 75% ethanol.
Familiarization period: on the second day (24 hours after the adaptation period), the mice were placed in the test room for 1 hour of environmental adaptation and familiarization, then two yellow cylindrical bottles of the same size and texture were placed at the left and right ends of the same side of the open field box as familiar objects, and then the mouse was put into the box with its back towards the objects. The mouse's exploration of the objects within 5 min was recorded (timing standard: the exploration time within 2 cm of the mouse's nose or mouth from the object, and its lying on the objects or just walking around the objects was not included). […]
Test period: 2 h after the familiarization period, replace a yellow cylindrical bottle in the open field box was replaced with a green conical bottle of the same size as a strange object, and then the mouse was put into the box with its back towards the objects. […] The recognition index (RI) was calculated: RI=Tn/(Tn+Tf). […]

The subject of assay [2] is mice. The assay is described as follows: Step-down test of mice (scopolamine hydrobromide). How it is done: (§1) Statistical methods: the data were analyzed by GraphPad Prism 7.01 software (GraphPad Software, Inc., San Diego, California, USA). Before the parameter test of all group tests, the data were tested by normality test (Kolmogorov-Smirnov test) and variance homogeneity test (Levene test). Except for the escape latency in water maze, all test parameters were compared between groups by non paired T-test (single tail), and the test level was set as p<0.05. The escape latency in water maze was compared between two groups by two-way analysis of variance. The post test was conducted by Sidak's multiple comparisons test, and the test level was set as p<0.05.
Test method: the grouping, sample preparation and modeling of mouse step-down test were the same as above. At the beginning of the test, the step-down training was carried out, where the adaptation was carried out for 3 min and then the power on training was carried out for 300 s. The test was conducted after 24 hours. The drug was administered 1 hour before the test, and scopolamine hydrobromide and normal saline were injected intraperitoneally 15-20 minutes before the test. Then the mouse was put on the platform and the latency of jumping off the platform for the first time and the number of errors (getting off the platform) within 300 s were recorded.

The subject of assay [3] is mice. Nature of the assay: Morris water maze test, directional navigation experiment. The conditions noted are these: max 60 s. How it is done: as §1
(§2) Implementation method: the test procedure included two parts: directional navigation and space exploration. A total of 5 consecutive days were tested. The first part was the directional navigation experiment, which was tested on mice for 4 days, and the second part was the space exploration experiment, which was tested for 1 day. The melanin edible toner was […] to hide the platform, and it was kept in sharp contrast with the color of mice during camera shooting for easy tracking. The platform was located 0.8 cm below the water surface and the water depth was 21 cm. It was located in the NW quadrant. The water temperature in the water maze was maintained at a constant temperature of 22-24° C. with a heating rod.
Directional navigation experiment: each mouse was trained 4 times a day, with an interval of 15-20 min. During the test, the water entry point was selected in a semi random way each time. The experimenter held the mouse by hand, made it face the pool wall, and gently put it into the water. In each training, if the mouse could find the platform within 60 s, and the time spent on the platform was more than 2 S, it was regarded as the sign of successful platform search. The time spent by the mice from entering the water to successful platform search was recorded as the latency. […] After the mice boarded the platform, the mice were kept on the platform for 10 s, so that they could carry out spatial learning and memory according to the reference objects of the four quadrants, and the tension of the mice were reduced. The average value of daily latency was calculated to evaluate the acquisition ability of animals' spatial memory.

Assay [4] concerns mice. The assay is described as follows: Morris water maze test, space exploration experiment. The conditions noted are these: exploration period. How it is done:
as §1, §2
Space exploration experiment: the platform was removed and each mouse was tested once for 60 s. The SE quadrant was selected and the mouse was gently put into the water facing the edge of the pool wall. The spatial memory ability of the animal was evaluated by the number of times the animal crossed the original platform position within 60 s, the run ratio and time ratio of the original platform quadrant (i.e. the ratio of the run and time of the animal's original platform quadrant to the total run and time).

Where [5] appears, read: after intragastric administration.

Take `C/C=C1\[C@H]2C=C(C)C[C@]1(N)c1ccc(=O)[nH]c1C2` [Positive drug, huperzine-A]: the “Recognition index (x[…]SE)” value in the assay with mice [1] (RI=Tn/(Tn+Tf), intragastric, dose (crude drug) 1.002 g/kg (Embodiment 1, Comparative examples 1, 2), 1.200 g/kg (Comparative example 3), 0.67 tablets/kg (positive drug), model group 0.4180, control 0.5715) amounted to 0.5341 ± 0.0428. For the same molecule, the “Recognition index compared with the model group” value in the assay with mice [1] (setting [5]) was “increased significantly”. In the assay with mice [2] (setting [5]), the “Step-down latency compared with the model group” value is given as “significantly longer” and the “Step-down number of errors compared with the model group” value is “significantly lower”. Besides, the “Number of errors (x[…]SE)” value with mice [2] (errors within 300 s, doses as Table 3, model group 2.714, control 1.375) was 1.833 ± 0.3445. The same molecule gave a Latency/s with mice [2] (latency of jumping off the platform, max 300 s, drug 1 hour before test, doses as Table 2, model group 42.01, control 100.3) of 94.12 ± 29.48 s. Further, in the assay on mice [3] (first day, doses as Table 4, model group 53.2), the “Escape latency First day (s) (x[…]SE)” value was 52.7 ± 2.29 s. In addition, the “Escape latency Fourth day (s) (x[…]SE)” value in the assay on mice [3] (fourth day, model group 47.7) is 43.5 ± 2.83 s. Further, the “Escape latency Second day (s) (x[…]SE)” value in the assay with mice [3] (second day, model group 44.2) is recorded as 44.5 ± 2.80 s. In the assay with mice [3] (third day, model group 42.4), the “Escape latency Third day (s) (x[…]SE)” value turned out to be 43.6 ± 2.91 s. The “Stay time in target quadrant/s (x[…]SE)” value in the assay on mice [4] (60 s, model group 14.15, control 17.30) turned out to be 15.04 ± 0.9555 s. In the assay with mice [4] (within 60 s, model group 1.308, control 3.125), the “Number of crossing platform (x[…]SE)” value is 2.786 ± 0.4591. Besides, in the assay with mice [4] (setting [5]), the “Escape latency compared with the model group” value is on record as “significantly shorter” and the “Number of crossing the platform compared with the model group” value was “significantly higher”. The “Escape latency/s (x[…]SE)” value in the assay with mice [4] (doses as Table 5, model group 39.27, control 20.05) is reported as 22.91 ± 3.922 s. The “Run distance of target quadrant/mm (x[…]SE)” value with mice [4] (model group 2373, control 2821) is 2867 ± 207.6 mm.
